Data published in PubChem BioAssay AID1963983 (Molecular Pharmacology Branch, DTP, NCI, 2024).
Each block holds one compound with its values, some of them ahead of it.

Tested on: 186277-243-T-J2-PDC multi-cell spheroid viability
Experiment: Anticancer human tumor 186277-243-T-J2-PDC patient-derived colon adenocarcinoma cell line growth inhibition [PI3K]
Conditions: for IC50: curve of first compound; for viability, T/C: stronger effect = lower value
Outline: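 Targeted small molecules plus PI3K inhibitors, half-log dose series from Cmax (default top 10 microM), were applied to heterotypic spheroids of cancer cells with HUVEC and MSCs. Viability indicated growth inhibition.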

[1] = second compound 0.0316 µM, first compound 0.0316 µM
[2] = second compound 0.0316 µM, first compound 0.1 µM
[3] = second compound 0.0316 µM, first compound 0.316 µM
[4] = second compound 0.0316 µM, first compound 1 µM
[5] = second compound 0.1 µM, first compound 0.0316 µM
[6] = second compound 0.1 µM, first compound 0.1 µM
[7] = second compound 0.1 µM, first compound 0.316 µM
[8] = second compound 0.1 µM, first compound 1 µM
[9] = second compound 0.316 µM, first compound 0.0316 µM
[10] = second compound 0.316 µM, first compound 0.1 µM
[11] = second compound 0.316 µM, first compound 0.316 µM
[12] = second compound 0.316 µM, first compound 1 µM
[13] = second compound 1 µM, first compound 0.0316 µM
[14] = second compound 1 µM, first compound 0.1 µM
[15] = second compound 1 µM, first compound 0.316 µM
[16] = second compound 1 µM, first compound 1 µM
[17] = second compound 3.16 µM, first compound 0.0316 µM
[18] = second compound 3.16 µM, first compound 0.1 µM
[19] = second compound 3.16 µM, first compound 0.316 µM
[20] = second compound 3.16 µM, first compound 1 µM
[21] = second compound 10 µM, first compound 0.0316 µM
[22] = second compound 10 µM, first compound 0.1 µM
[23] = second compound 10 µM, first compound 0.316 µM
[24] = second compound 10 µM, first compound 1 µM
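Further: spheroids exposed to compounds for seven days before viability reading.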
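Wherever viability, T/C is given: 100% = DMSO vehicle control viability.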

IC50 (second compound 0.0316 µM): 2.28 µM
IC50 (second compound 0.1 µM): 1.06 µM
IC50 (second compound 0.316 µM): 1.11 µM
IC50 (second compound 1 µM): 0.815 µM
IC50 (second compound 3.16 µM): 0.539 µM
IC50 (second compound 10 µM): 0.466 µM
Compound: CC(C)NCC(C(=O)N1CCN(c2ncnc3c2C(C)CC3O)CC1)c1ccc(Cl)cc1 (centres undefined) + CC(Nc1ncnc2nc[nH]c12)c1cc2cccc(Cl)c2c(=O)n1-c1ccccc1
viability, T/C [1]: 90.7%
viability, T/C [2]: 78.6%
viability, T/C [3]: 80.1%
viability, T/C [4]: 60.4%
viability, T/C (second compound 0.0316 µM, first compound 3.16 µM): 45.4%
viability, T/C (second compound 0.0316 µM, first compound 10 µM): 31.2%
viability, T/C [5]: 82.5%
viability, T/C [6]: 94%
viability, T/C [7]: 70.5%
viability, T/C [8]: 50%
viability, T/C (second compound 0.1 µM, first compound 3.16 µM): 40.1%
viability, T/C (second compound 0.1 µM, first compound 10 µM): 28.2%
viability, T/C [9]: 85.6%
viability, T/C [10]: 92.2%
viability, T/C [11]: 68.8%
viability, T/C [12]: 48.9%
viability, T/C (second compound 0.316 µM, first compound 3.16 µM): 42.5%
viability, T/C (second compound 0.316 µM, first compound 10 µM): 26.3%
viability, T/C [13]: 96.7%
viability, T/C [14]: 77.5%
viability, T/C [15]: 63.8%
viability, T/C [16]: 49.6%
viability, T/C (second compound 1 µM, first compound 3.16 µM): 30%
viability, T/C (second compound 1 µM, first compound 10 µM): 23%
viability, T/C [17]: 96.5%
viability, T/C [18]: 92.8%
viability, T/C [19]: 58.7%
viability, T/C [20]: 36.8%
viability, T/C (second compound 3.16 µM, first compound 3.16 µM): 30.9%
viability, T/C (second compound 3.16 µM, first compound 10 µM): 17.6%
viability, T/C [21]: 77.3%
viability, T/C [22]: 78.8%
viability, T/C [23]: 54.2%
viability, T/C [24]: 36.3%
viability, T/C (second compound 10 µM, first compound 3.16 µM): 21.4%
viability, T/C (second compound 10 µM, first compound 10 µM): 14.4%

IC50 (second compound 0.0316 µM): > 1 µM
IC50 (second compound 0.1 µM): > 1 µM
IC50 (second compound 0.316 µM): > 1 µM
IC50 (second compound 1 µM): > 1 µM
IC50 (second compound 3.16 µM): > 1 µM
IC50 (second compound 10 µM): > 1 µM
Compound: CCN1CCN(Cc2ccc(Nc3ncc(F)c(-c4cc(F)c5nc(C)n(C(C)C)c5c4)n3)nc2)CC1 + CC(Nc1ncnc2nc[nH]c12)c1cc2cccc(Cl)c2c(=O)n1-c1ccccc1
viability, T/C (second compound 0.0316 µM, first compound 0.00316 µM): 94.6%
viability, T/C (second compound 0.0316 µM, first compound 0.01 µM): 85.9%
viability, T/C [1]: 104%
viability, T/C [2]: 108%
viability, T/C [3]: 166%
viability, T/C [4]: 160%
viability, T/C (second compound 0.1 µM, first compound 0.00316 µM): 98.9%
viability, T/C (second compound 0.1 µM, first compound 0.01 µM): 84%
viability, T/C [5]: 103%
viability, T/C [6]: 120%
viability, T/C [7]: 148%
viability, T/C [8]: 148%
viability, T/C (second compound 0.316 µM, first compound 0.00316 µM): 93.5%
viability, T/C (second compound 0.316 µM, first compound 0.01 µM): 97.6%
viability, T/C [9]: 100%
viability, T/C [10]: 124%
viability, T/C [11]: 136%
viability, T/C [12]: 143%
viability, T/C (second compound 1 µM, first compound 0.00316 µM): 104%
viability, T/C (second compound 1 µM, first compound 0.01 µM): 99.4%
viability, T/C [13]: 104%
viability, T/C [14]: 120%
viability, T/C [15]: 155%
viability, T/C [16]: 129%
viability, T/C (second compound 3.16 µM, first compound 0.00316 µM): 102%
viability, T/C (second compound 3.16 µM, first compound 0.01 µM): 107%
viability, T/C [17]: 100%
viability, T/C [18]: 119%
viability, T/C [19]: 124%
viability, T/C [20]: 108%
viability, T/C (second compound 10 µM, first compound 0.00316 µM): 78.3%
viability, T/C (second compound 10 µM, first compound 0.01 µM): 88%
viability, T/C [21]: 95.9%
viability, T/C [22]: 97.7%
viability, T/C [23]: 102%
viability, T/C [24]: 78.3%
